In one assay the target is T1, RARα (Homo sapiens, UniProt P10276).
T1 sequence (P10276 183-462 limits assumed): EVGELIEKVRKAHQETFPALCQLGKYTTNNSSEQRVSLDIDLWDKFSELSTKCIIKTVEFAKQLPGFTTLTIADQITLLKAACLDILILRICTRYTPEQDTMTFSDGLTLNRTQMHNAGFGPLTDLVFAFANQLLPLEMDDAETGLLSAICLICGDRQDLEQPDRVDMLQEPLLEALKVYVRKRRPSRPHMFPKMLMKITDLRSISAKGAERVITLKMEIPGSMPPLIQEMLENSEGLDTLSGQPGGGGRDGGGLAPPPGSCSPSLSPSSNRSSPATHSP
In words: chimeric receptor transactivation assay, RARα. The format is cell-based. The settings on record: EC50 line of EC50/(EFFICACY)/Kd, read-out: RAR EC50 α. The text has this: (§1) Assays described below measure the ability of a compound to bind to, and/or activate various retinoid receptor subtypes. When in these assays a compound binds to a given receptor subtype and activates the transcription of a reporter gene through that subtype, then the compound is considered an agonist of that receptor subtype. […] In the below described assays the ability of the compounds to bind to RARα, RARβ, RARγ, RXRα, RXRβ and RXRγ receptors, and the ability or inability of the compounds to activate transcription of a reporter gene through these receptor subtypes can be tested.
(§2) As far as specific assays are concerned, a chimeric receptor transactivation assay which tests for agonist-like activity in the RARα, RARβ, AND RARγ, receptor subtypes, and which is based on work published by Feigner P. L. and Holm M. (1989) Focus, 112 is described in detail in U.S. Pat. No. 5,455,265. The specification of U.S. Pat. No. 5,455,265 is hereby expressly incorporated by reference. The numeric results obtained with several preferred compounds of this invention in this assay are shown below in Table 1.

A further assay concerns the target T2, RARβ (Homo sapiens, UniProt P10826).
T2 sequence (P10826 1-455): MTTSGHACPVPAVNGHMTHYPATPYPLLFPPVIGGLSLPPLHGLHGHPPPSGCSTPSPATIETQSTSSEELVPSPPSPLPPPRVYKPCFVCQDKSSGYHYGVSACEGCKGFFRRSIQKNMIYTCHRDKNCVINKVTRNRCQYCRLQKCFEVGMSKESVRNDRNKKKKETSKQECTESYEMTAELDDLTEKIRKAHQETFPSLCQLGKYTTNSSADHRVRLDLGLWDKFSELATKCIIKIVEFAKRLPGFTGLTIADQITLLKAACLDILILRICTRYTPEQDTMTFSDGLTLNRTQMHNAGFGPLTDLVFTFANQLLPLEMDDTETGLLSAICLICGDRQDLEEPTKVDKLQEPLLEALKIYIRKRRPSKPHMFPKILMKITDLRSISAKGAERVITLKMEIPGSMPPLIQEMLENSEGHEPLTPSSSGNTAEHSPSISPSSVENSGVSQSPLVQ
Kind of assay: ligand binding assay, RARβ. The settings on record: Kd line of EC50/(EFFICACY)/Kd, read-out: RAR Kd β.

Assay [1] addresses T3, RARγ (Homo sapiens, UniProt P13631).
T3 sequence (P13631 185-419 limits assumed): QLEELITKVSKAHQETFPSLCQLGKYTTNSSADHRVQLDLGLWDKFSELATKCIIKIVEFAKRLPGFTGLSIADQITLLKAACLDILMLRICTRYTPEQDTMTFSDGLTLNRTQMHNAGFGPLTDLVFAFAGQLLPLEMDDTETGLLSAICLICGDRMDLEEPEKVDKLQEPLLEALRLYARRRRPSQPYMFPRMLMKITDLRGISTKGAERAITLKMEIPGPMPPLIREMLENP
Kind of assay: chimeric receptor transactivation assay, RARγ. The class given is cell-based. To be noted: EC50 line of EC50/(EFFICACY)/Kd, read-out: RAR EC50 γ.
From the text: as §1, §2

Assay [2] deals with T4, RARγ (Homo sapiens, UniProt P13631).
T4 sequence (P13631 1-454): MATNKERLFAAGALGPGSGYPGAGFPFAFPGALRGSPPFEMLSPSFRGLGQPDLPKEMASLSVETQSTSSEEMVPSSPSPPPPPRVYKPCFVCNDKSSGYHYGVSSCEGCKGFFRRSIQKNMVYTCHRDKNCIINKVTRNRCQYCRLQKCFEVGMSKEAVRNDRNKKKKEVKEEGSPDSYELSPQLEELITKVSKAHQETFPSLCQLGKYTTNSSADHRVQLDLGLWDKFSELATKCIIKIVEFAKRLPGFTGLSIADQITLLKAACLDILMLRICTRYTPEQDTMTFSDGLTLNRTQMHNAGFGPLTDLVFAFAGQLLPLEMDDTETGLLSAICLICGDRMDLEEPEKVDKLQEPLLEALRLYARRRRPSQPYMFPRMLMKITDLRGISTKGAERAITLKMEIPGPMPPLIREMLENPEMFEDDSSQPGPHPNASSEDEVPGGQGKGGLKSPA
Kind of assay: ligand binding assay, RARγ. The settings on record: Kd line of EC50/(EFFICACY)/Kd, read-out: RAR Kd γ.

For orientation: EC50 means the midpoint of the concentration-response curve. As usually defined, the Kd is a measure of binding affinity in units of concentration.

Turning to `CCc1cc(C#Cc2ccc(C(=O)O)cc2)ccc1C1(OCc2ccccc2)CC1` [Compound 93, 4-[4-(1-Benzyloxycyclopropyl)-3-ethyl-phenylethynyl]-benzoic Acid], the EC50 on RARα stood at 4820 nM; at RARγ [1] it was 10 nM. The results for the Kd at RARβ and at RARγ [2] were 554 nM and 358 nM, respectively.
Consider `CC(C)OC1(c2ccc(C#Cc3ccc(C(=O)O)cc3)cc2)CC1` [Compound 73, 4-[4-(1-Isopropoxycyclopropyl)-phenylethynyl]-benzoic Acid], for which the Kd on RARβ came out at 26 nM; at RARγ [2] it was 351 nM. In addition, on RARγ [1], the EC50 turned out to be 91 nM.
Regarding `CC1(C)CC2(CC2)Oc2ccc(C#Cc3ccc(C(=O)O)c(F)c3)cc21` [Compound 44, 2-Fluoro-benzoic Acid, 4-[(3,4-dihydro-4,4-dimethylspiro[2H-1-benzopyran-2,1′-cyclopropane]-6-yl)ethynyl]-], the EC50 was determined as 49 nM at RARα and 7.5 nM on RARγ [1]. Also, the Kd came to 1.9 nM on RARβ and 392 nM on RARγ [2].
The matching figures for `COC1(c2ccc(C#Cc3ccc(C(=O)O)cc3)cc2)CC1` [Compound 69, 4-[4-(1-Methoxycyclopropyl)-phenylethynyl]-benzoic Acid]: 313 nM, 52.6 nM, 133 nM and 501 nM.
Consider `CC1(C)CC2(CC2)Oc2ccc(C#Cc3ccc(C(=O)O)cc3)cc21` [Compound 40, Benzoic Acid, 4-[(3,4-dihydro-4,4-dimethylspiro[2H-1-benzopyran-2,1′-cyclopropane]-6-yl)ethynyl]-], for which the concentration giving a half-maximal response (EC50) at RARα worked out at 33 nM; on RARγ [1], 6.8 nM. The Kd on RARβ amounted to 1.3 nM; on RARγ [2], 363 nM.
The matching figures for `Cc1cc(C#Cc2ccc(C(=O)O)cc2)ccc1C1(OC(C)C)CC1` [Compound 85, 4-[4-(1-Isopropoxycyclopropyl)-3-methyl-phenylethynyl]-benzoic Acid]: 976 nM, 2.5 nM, 240 nM and 302 nM.
Turning to `CC1(C)CCC(=O)c2ccc(C#Cc3ccc(CC(=O)O)cc3)cc21` [Compound 5, 4-[(8,8-Dimethyl-5-oxo-5,6,7,8-tetrahydro-naphthalene-2-yl-ethynyl)-phenyl]-acetic Acid], the Kd at RARβ is 2810 nM; at RARγ [2], more than 10000 nM.
As for `Cc1cc(C#Cc2ccc(C(=O)O)cc2)ccc1C1(OCc2ccccc2)CC1` [Compound 81, 4-[4-(1-Benzyloxycyclopropyl)-3-methyl-phenylethynyl]-benzoic Acid], the dissociation constant Kd amounted to 846 nM at RARβ and 1060 nM on RARγ [2]. Besides, the concentration giving a half-maximal response (EC50) at RARγ [1] turned out to be 183 nM.
For `Cc1cc(C#Cc2ccc(C(=O)O)cc2)ccc1C1(OCC(C)(C)C)CC1` [Compound 89, 4-[4-[1-(2,2-Dimethylpropyloxy)-cyclopropyl]-3-methyl-phenylethynyl]-benzoic Acid], the figures for the EC50 on RARα and on RARγ [1] were 268 nM and 12 nM, respectively. Further, the figures for the Kd at RARβ and at RARγ [2] were 980 nM and 475 nM, respectively.
Consider `O=C(O)c1ccc(C#Cc2ccc(C3(NCc4ccccc4)CC3)cc2)cc1` [Compound 112, 4-[4-(1-Benzylamino-cyclopropyl)-phenylethynyl]-benzoic Acid], for which the values for the equilibrium dissociation constant (Kd) at RARβ and on RARγ [2] were 704 nM and 685 nM, respectively.
For `CCCNC1(c2ccc(C#Cc3ccc(C(=O)O)cc3)cc2)CC1` [Compound 108, 4-[4-(1-Propylamino-cyclopropyl)-phenylethynyl]-benzoic Acid], the values for the half-maximal effective concentration (EC50) on RARα and on RARγ [1] were 6.6 nM and 141 nM, respectively. Also, the Kd on RARβ was 547 nM; on RARγ [2] it was 13000 nM.
For `CN(C1CC1)C1CCC(C)(C)c2cc(C#Cc3ccc(C(=O)O)cc3)ccc21` (centres unmarked) [Compound 3, 4-[(5-Cyclopropyl-methyl-amino)-8,8-dimethyl-5,6,7,8-tetrahydro-naphthalene-2yl-ethynyl]-benzoic Acid] the same measures were 280 nM, 9.8 nM, 0.8 nM and 158 nM.
`CN(C1CC1)C1CCC(C)(C)c2cc(C#Cc3ccc(CC(=O)O)cc3)ccc21` (centres unmarked) [Compound 8, 4-[(5-(Cyclopropyl-methyl-amino)-8,8-dimethyl-5,6,7,8-tetrahydro-naphthalene-2-yl-ethynyl)-phenyl]-acetic Acid]: the dissociation constant Kd came out at 3780 nM at RARβ and 25000 nM on RARγ [2].
As for `CCCN(CCC)C1(c2ccc(C#Cc3ccc(C(=O)O)cc3)cc2)CC1` [Compound 110, 4-[4-(1-Dipropylamino-cyclopropyl)-phenylethynyl]-benzoic Acid], the Kd is 409 nM at RARβ and less than 10000 nM at RARγ [2]. Moreover, at RARγ [1], the EC50 stood at 262 nM.

Source of the values: patent publication US6369225B1, “Compounds having activity as inhibitors of cytochrome P450RAI” (Allergan Sales, Inc., priority 2000, dated 2002).
